The first assay relates to OF1 mice. Kind of assay: Maximal electroshock test (MES Test). It counts as in vivo. The settings on record: Mus musculus, po; 50 mg/kg, p.o., pre-treatment time −1 h; read-out: %-Protection. The gist of the method: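 Readout: fraction of five OF1 mice protected, meaning seizure duration 3 s or less, after a 50 Hz, 18 mA, 0.2 s temporal-electrode shock. Dosing was oral, usually 50 mg/kg, one hour beforehand; ED50 values were derived and post-shock blood taken for exposure.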
`COC(=O)N(n1c(=O)[nH]c2cc(C(F)(F)F)c(-c3ccnn3C)cc2c1=O)S(C)(=O)=O` [Example 1.05, Methanesulfonyl-[6-(2-methyl-2H-pyrazol-3-yl)-2,4-dioxo-7-trifluoromethyl-1,4-dihydro-2H-quinazolin-3-yl]-carbamic acid methyl ester]: the responders at 50 mg/kg worked out at 80%.

In the case of `CCCCCOC(=O)N(n1c(=O)[nH]c2cc(CC)c(-c3ccnn3C)cc2c1=O)S(C)(=O)=O` [Example 2.13, Methanesulfonyl-[7-ethyl-6-(2-methyl-2H-pyrazol-3-yl)-2,4-dioxo-1,4-dihydro-2H-quinazolin-3-yl]-carbamic acid pentyl ester], the responders at 50 mg/kg was 20%.

Turning to `CCCC(=O)N(n1c(=O)[nH]c2cc(C(F)(F)F)c(-n3ccnc3)cc2c1=O)S(C)(=O)=O` [Example 4.09, N-Butyryl-N-(6-imidazol-1-yl-2,4-dioxo-7-trifluoromethyl-1,4-dihydro-2H-quinazolin-3-yl)-methanesulfonamide], the responders at 50 mg/kg was 40%.

For the compound `CCOC(=O)N(n1c(=O)[nH]c2cc(C(F)F)c(-c3ccnn3C(C)C)cc2c1=O)S(C)(=O)=O` [Example 6.06, [7-Difluoromethyl-6-(2-isopropyl-2H-pyrazol-3-yl)-2,4-dioxo-1,4-dihydro-2H-quinazolin-3-yl]-methanesulfonyl-carbamic acid ethyl ester], the responders at 50 mg/kg turned out to be 60%.

As to `CCC(=O)N(n1c(=O)[nH]c2cc(CC)c(-c3ccnn3CC)cc2c1=O)S(C)(=O)=O` [Example 13.03, N-[7-Ethyl-6-(2-ethyl-2H-pyrazol-3-yl)-2,4-dioxo-1,4-dihydro-2H-quinazolin-3-yl]-N-propionyl-methanesulfonamide], the responders at 50 mg/kg was 20%.

In the case of `CCC(=O)N(n1c(=O)[nH]c2cc(C(F)(F)F)c(-n3cccc3)cc2c1=O)S(C)(=O)=O` [Example 8.01, N-(2,4-Dioxo-6-pyrrol-1-yl-7-trifluoromethyl-1,4-dihydro-2H-quinazolin-3-yl)-N-propionyl-methanesulfonamide], the responders at 50 mg/kg came to 20%.

Regarding `CCCCOC(=O)N(n1c(=O)[nH]c2cc(C(C)C)c(-c3ccnn3C)cc2c1=O)S(C)(=O)=O` [Example 3.21, [7-Isopropyl-6-(2-methyl-2H-pyrazol-3-yl)-2,4-dioxo-1,4-dihydro-2H-quinazolin-3-yl]-methanesulfonyl-carbamic acid butyl ester], the responders at 50 mg/kg turned out to be 100%.

In the case of `COCCOC(=O)N(n1c(=O)[nH]c2cc(C(F)(F)F)c(-c3ccnn3C)cc2c1=O)S(C)(=O)=O` [Example 1.07, Methanesulfonyl-[6-(2-methyl-2H-pyrazol-3-yl)-2,4-dioxo-7-trifluoromethyl-1,4-dihydro-2H-quinazolin-3-yl]-carbamic acid 2-methoxy-ethyl ester], the responders at 50 mg/kg was found to be 80%.

As to `COCCOCCOCC(=O)N(n1c(=O)[nH]c2cc(C(C)C)c(-c3ccnn3C)cc2c1=O)S(C)(=O)=O` [Example 3.28, N-[7-Isopropyl-6-(2-methyl-2H-pyrazol-3-yl)-2,4-dioxo-1,4-dihydro-2H-quinazolin-3-yl]-N-[2-[2-(2-methoxy-ethoxy)-ethoxy]-acetyl]-methanesulfonamide], the responders at 50 mg/kg came to 100%.

Still in this assay, the particulars now being: Mus musculus, po; Dose: 25 mg/kg, p.o. (footnote b), pre-treatment time −1 h; read-out: %-Protection.
As for `CCOC(=O)N(n1c(=O)[nH]c2cc(C(F)F)c(-c3ccnn3C(C)C)cc2c1=O)S(C)(=O)=O` [Example 6.06, [7-Difluoromethyl-6-(2-isopropyl-2H-pyrazol-3-yl)-2,4-dioxo-1,4-dihydro-2H-quinazolin-3-yl]-methanesulfonyl-carbamic acid ethyl ester], the responders at 25 mg/kg was 20%.

Staying with this assay, now noted: Mus musculus; dose of up to 50 mg/kg, p.o., 1 hour prior to induction of convulsions; read-out: %-Protection.
As to `CCCCCCOC(=O)N(n1c(=O)[nH]c2cc(C(F)(F)F)c([C@H]3CCCO3)cc2c1=O)S(C)(=O)=O` [Methanesulfonyl-[(R)-2,4-Dioxo-6-tetrahydro-furan-2-yl-7-trifluoromethyl-1,4-dihydro-2H-quinazolin-3-yl]carbamic acid hexyl ester], the responders at 50 mg/kg turned out to be 0%.

On to `CC(C)OC(=O)N(n1c(=O)[nH]c2cc(C(F)(F)F)c([C@H]3CCCO3)cc2c1=O)S(C)(=O)=O` [Methanesulfonyl-[(R)-2,4-Dioxo-6-tetrahydro-furan-2-yl-7-trifluoromethyl-1,4-dihydro-2H-quinazolin-3-yl]carbamic acid isopropyl ester], for which the responders at 50 mg/kg is 0%.
